Measurements taken from ChEMBL document CHEMBL3421577, “Discovery and biological evaluation of tetrahydrothieno[2,3-c]pyridine derivatives as selective metabotropic glutamate receptor 1 antagonists for the potential treatment of neuropathic pain” (Eur J Med Chem, 2015).

Key:
[1] = target: T1, Metabotropic glutamate receptor 1 (Homo sapiens, UniProt Q13255); assay: Antagonist activity at mGlu1 receptor (unknown origin) at 10 uM relative to control
[2] = Mean residence time in Sprague-Dawley rat at 10 mg/kg, iv by LC-MS/MS analysis; format: ADME, organism-based; set-up: dose 10 mg/kg, route intravenous; conditions: in vivo
[3] = target: Muscarinic acetylcholine receptor M1 (Homo sapiens) (UniProt P11229); assay: Antagonist activity at M1 receptor (unknown origin) at 10 uM relative to control
Sequence of Muscarinic acetylcholine receptor M1 (Homo sapiens) (P11229 whole entry): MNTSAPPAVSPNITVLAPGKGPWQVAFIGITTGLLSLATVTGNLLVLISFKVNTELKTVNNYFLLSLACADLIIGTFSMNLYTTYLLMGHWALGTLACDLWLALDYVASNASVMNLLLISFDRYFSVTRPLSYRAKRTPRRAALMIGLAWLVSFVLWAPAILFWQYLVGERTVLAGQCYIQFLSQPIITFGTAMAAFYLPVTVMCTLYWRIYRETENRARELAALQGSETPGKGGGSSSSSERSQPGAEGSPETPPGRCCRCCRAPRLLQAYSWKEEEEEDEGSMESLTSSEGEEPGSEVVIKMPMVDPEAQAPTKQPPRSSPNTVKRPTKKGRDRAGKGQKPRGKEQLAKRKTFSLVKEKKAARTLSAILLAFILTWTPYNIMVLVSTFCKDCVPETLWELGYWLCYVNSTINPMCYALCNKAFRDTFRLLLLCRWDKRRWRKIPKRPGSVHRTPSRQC

[4] = target: 5-hydroxytryptamine receptor 2A (Homo sapiens) (UniProt P28223); assay: Agonist activity at 5HT2A receptor (unknown origin) at 12.5 uM relative to control
Sequence of 5-hydroxytryptamine receptor 2A (Homo sapiens) (P28223 whole entry): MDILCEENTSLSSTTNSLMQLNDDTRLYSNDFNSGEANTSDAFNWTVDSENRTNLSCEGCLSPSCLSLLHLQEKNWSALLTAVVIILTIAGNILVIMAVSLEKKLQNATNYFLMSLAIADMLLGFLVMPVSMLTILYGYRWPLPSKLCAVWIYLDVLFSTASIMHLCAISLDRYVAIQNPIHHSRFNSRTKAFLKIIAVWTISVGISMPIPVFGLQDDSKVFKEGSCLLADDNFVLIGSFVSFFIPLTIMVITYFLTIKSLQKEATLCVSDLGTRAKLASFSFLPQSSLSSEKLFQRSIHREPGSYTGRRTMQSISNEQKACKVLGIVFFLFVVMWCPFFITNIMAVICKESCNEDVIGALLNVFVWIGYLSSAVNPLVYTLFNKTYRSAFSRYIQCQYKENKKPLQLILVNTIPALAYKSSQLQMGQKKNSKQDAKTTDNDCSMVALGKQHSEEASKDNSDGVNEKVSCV

[5] = target: CYP3A4 (Homo sapiens, UniProt P08684); assay: Inhibition of recombinant human CYP3A4 assessed as remaining activity at 10 uM preincubated for 5 mins followed by substrate and NADP addition measured after 20 mins by fluorescence assay relative to control; format: ADME; conditions: read-out: Activity
[6] = target: Metabotropic glutamate receptor 2 (Homo sapiens) (UniProt Q14416); assay: Agonist activity at mGlu2 receptor (unknown origin) at 12.5 uM relative to control
Sequence of Metabotropic glutamate receptor 2 (Homo sapiens) (Q14416 19-872 limits assumed): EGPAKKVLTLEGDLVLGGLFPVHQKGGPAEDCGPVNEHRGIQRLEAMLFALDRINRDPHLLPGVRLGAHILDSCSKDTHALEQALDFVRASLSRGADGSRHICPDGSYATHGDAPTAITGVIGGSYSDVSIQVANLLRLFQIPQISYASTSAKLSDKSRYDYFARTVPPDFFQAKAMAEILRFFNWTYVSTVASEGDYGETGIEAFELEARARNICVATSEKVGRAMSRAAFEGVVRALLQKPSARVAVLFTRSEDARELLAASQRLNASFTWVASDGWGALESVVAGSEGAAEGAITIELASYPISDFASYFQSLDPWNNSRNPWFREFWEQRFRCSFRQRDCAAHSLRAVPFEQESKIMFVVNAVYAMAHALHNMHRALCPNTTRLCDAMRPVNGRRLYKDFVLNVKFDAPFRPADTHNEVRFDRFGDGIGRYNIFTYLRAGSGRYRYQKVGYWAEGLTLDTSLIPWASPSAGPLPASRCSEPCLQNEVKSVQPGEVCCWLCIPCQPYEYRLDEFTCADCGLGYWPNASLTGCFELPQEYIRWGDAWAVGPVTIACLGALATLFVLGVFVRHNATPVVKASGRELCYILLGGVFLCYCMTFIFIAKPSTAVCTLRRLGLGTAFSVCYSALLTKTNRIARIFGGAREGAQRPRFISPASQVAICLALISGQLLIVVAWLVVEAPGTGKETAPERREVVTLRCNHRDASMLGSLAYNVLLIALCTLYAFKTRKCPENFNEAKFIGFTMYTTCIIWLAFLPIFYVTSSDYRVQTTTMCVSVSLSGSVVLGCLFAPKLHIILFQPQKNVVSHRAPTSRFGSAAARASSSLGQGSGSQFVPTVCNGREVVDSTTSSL

[7] = target: C-X-C chemokine receptor type 4 (Homo sapiens) (UniProt P61073); assay: Antagonist activity at CXCR4 (unknown origin) at 10 uM relative to control
Sequence of C-X-C chemokine receptor type 4 (Homo sapiens) (P61073 whole entry): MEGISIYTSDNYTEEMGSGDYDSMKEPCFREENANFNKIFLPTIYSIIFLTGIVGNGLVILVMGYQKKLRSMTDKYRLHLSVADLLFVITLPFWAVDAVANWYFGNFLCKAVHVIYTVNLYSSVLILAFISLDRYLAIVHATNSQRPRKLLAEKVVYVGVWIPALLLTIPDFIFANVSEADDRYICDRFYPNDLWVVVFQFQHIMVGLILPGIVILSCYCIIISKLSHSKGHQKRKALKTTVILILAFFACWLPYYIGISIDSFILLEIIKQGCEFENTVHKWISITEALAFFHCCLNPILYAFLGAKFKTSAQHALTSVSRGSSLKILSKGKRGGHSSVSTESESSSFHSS

[8] = target: Muscarinic acetylcholine receptor M5 (Homo sapiens) (UniProt P08912); assay: Antagonist activity at M5 receptor (unknown origin) at 10 uM relative to control
[9] = AUClast in Sprague-Dawley rat at 10 mg/kg, po by LC-MS/MS analysis; format: ADME, organism-based; set-up: time 0 - last, dose 10 mg/kg, route oral; conditions: plasma
[10] = Drug uptake in Sprague-Dawley rat brain at 10 mg/kg, po measured at 2 hrs by LC-MS/MS analysis; format: ADME, organism-based; set-up: dose 10 mg/kg, route oral; conditions: read-out: Drug uptake
[11] = target: B2 bradykinin receptor (Homo sapiens) (UniProt P30411); assay: Agonist activity at BDKR2 (unknown origin) at 12.5 uM relative to control
Sequence of B2 bradykinin receptor (Homo sapiens) (P30411 whole entry): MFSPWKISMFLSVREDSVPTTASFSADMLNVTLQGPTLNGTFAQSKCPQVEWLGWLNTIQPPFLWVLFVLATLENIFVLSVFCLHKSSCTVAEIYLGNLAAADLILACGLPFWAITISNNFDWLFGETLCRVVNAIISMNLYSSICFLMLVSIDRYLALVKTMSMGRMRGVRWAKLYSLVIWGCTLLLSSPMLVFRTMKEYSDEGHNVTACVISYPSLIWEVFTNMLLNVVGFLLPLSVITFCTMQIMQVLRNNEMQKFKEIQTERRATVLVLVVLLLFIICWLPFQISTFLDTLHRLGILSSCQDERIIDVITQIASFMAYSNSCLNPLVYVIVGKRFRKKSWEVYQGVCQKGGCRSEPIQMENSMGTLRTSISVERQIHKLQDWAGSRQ

[12] = Metabolic stability in human liver microsomes assessed as compound remaining at 1 uM after 30 mins by LC-MS/MS analysis in presence of NADPH; format: ADME; conditions: read-out: Stability
[13] = Drug uptake in Sprague-Dawley rat brain at 10 mg/kg, iv measured at 2 hrs by LC-MS/MS analysis; format: ADME, organism-based; set-up: dose 10 mg/kg, route intravenous; conditions: read-out: Drug uptake
[14] = AUC (0 to infinity) in Sprague-Dawley rat at 10 mg/kg, iv by LC-MS/MS analysis; format: ADME, organism-based; set-up: time infinity, dose 10 mg/kg, route intravenous; conditions: plasma
[15] = target: 5-hydroxytryptamine receptor 2A (Homo sapiens) (UniProt P28223); assay: Antagonist activity at 5HT2A receptor (unknown origin) at 10 uM relative to control
[16] = Tmax in Sprague-Dawley rat at 10 mg/kg, po by LC-MS/MS analysis; format: ADME, organism-based; set-up: dose 10 mg/kg, route oral; conditions: in vivo
[17] = target: 5-hydroxytryptamine receptor 2C (Homo sapiens) (UniProt P28335); assay: Antagonist activity at 5HT2C receptor (unknown origin) at 10 uM relative to control
Sequence of 5-hydroxytryptamine receptor 2C (Homo sapiens) (P28335 whole entry): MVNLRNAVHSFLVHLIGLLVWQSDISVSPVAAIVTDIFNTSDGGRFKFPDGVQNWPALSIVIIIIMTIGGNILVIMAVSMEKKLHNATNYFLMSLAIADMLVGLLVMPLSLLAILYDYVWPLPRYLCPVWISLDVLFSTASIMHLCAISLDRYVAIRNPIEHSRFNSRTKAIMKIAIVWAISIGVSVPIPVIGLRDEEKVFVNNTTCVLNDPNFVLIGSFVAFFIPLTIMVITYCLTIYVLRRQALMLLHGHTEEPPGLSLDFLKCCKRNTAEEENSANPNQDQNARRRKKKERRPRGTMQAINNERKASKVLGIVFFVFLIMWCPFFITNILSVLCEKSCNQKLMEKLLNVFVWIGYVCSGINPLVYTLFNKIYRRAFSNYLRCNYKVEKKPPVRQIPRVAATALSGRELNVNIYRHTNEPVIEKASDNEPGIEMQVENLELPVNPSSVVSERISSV

[18] = target: Alpha-1A adrenergic receptor (Homo sapiens) (UniProt P35348); assay: Agonist activity at ADRA1A (unknown origin) at 12.5 uM relative to control
[19] = target: Muscarinic acetylcholine receptor M1 (Homo sapiens) (UniProt P11229); assay: Agonist activity at M1 receptor (unknown origin) at 12.5 uM relative to control
[20] = Plasma concentration in Sprague-Dawley rat at 10 mg/kg, po measured at 8 hrs by LC-MS/MS analysis; format: ADME, organism-based; set-up: dose 10 mg/kg, route oral
[21] = target: C-C chemokine receptor type 2 (Homo sapiens) (UniProt P41597); assay: Agonist activity at CCR2B (unknown origin) at 12.5 uM relative to control
Sequence of C-C chemokine receptor type 2 (Homo sapiens) (P41597 whole entry, looked up): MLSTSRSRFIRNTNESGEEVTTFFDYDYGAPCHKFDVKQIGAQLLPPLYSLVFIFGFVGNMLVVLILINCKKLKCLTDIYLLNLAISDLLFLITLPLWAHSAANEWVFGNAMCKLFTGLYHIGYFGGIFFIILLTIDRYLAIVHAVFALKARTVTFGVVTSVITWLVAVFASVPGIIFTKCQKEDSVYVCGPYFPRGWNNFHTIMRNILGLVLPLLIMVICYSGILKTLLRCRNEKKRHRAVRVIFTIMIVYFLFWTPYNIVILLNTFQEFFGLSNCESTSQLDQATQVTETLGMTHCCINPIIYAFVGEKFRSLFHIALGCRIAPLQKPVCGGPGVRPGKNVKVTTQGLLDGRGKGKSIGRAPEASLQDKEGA

[22] = Apparent volume of distribution at steady state in Sprague-Dawley rat at 10 mg/kg, iv by LC-MS/MS analysis; format: ADME, organism-based; set-up: dose 10 mg/kg, route intravenous; conditions: in vivo, read-out: Vdss(app)
[23] = Plasma concentration in Sprague-Dawley rat at 10 mg/kg, po measured at 2 hrs by LC-MS/MS analysis; format: ADME, organism-based; set-up: dose 10 mg/kg, route oral
[24] = target: Substance-P receptor (Homo sapiens) (UniProt P25103); assay: Agonist activity at NK1 receptor (unknown origin) at 12.5 uM relative to control
Sequence of Substance-P receptor (Homo sapiens) (P25103 whole entry): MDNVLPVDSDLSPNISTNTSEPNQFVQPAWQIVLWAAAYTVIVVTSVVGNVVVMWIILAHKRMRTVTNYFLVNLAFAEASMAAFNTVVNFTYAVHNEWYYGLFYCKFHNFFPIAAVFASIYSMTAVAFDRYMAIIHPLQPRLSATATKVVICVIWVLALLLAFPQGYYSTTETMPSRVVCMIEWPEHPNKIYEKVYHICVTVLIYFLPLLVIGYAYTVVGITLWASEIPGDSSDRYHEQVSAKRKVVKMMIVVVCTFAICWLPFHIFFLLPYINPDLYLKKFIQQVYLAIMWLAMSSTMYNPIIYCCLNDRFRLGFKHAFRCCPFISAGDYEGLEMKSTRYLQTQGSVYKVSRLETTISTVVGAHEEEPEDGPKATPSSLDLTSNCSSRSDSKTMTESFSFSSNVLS

[25] = Plasma concentration in Sprague-Dawley rat at 10 mg/kg, iv measured at 8 hrs by LC-MS/MS analysis; format: ADME, organism-based; set-up: dose 10 mg/kg, route intravenous
[26] = Bioavailability in Sprague-Dawley rat at 10 mg/kg, iv by LC-MS/MS analysis; format: ADME, organism-based; conditions: in vivo
[27] = Ratio of drug level in brain to plasma in Sprague-Dawley rat at 10 mg/kg, po measured at 2 hrs by LC-MS/MS analysis; format: ADME, organism-based; set-up: dose 10 mg/kg, route oral; conditions: read-out: BPR
[28] = Drug excretion in Sprague-Dawley rat at 10 mg/kg, iv by LC-MS/MS analysis; format: ADME, organism-based; set-up: dose 10 mg/kg, route intravenous; conditions: in vivo, read-out: Drug excretion
[29] = target: C-X-C chemokine receptor type 4 (Homo sapiens) (UniProt P61073); assay: Agonist activity at CXCR4 (unknown origin) at 12.5 uM relative to control
[30] = AUClast in Sprague-Dawley rat at 10 mg/kg, iv by LC-MS/MS analysis; format: ADME, organism-based; set-up: time 0 - last, dose 10 mg/kg, route intravenous; conditions: plasma
[31] = target: Substance-P receptor (Homo sapiens) (UniProt P25103); assay: Antagonist activity at NK1 receptor (unknown origin) at 10 uM relative to control
[32] = target: C-C chemokine receptor type 2 (Homo sapiens) (UniProt P41597); assay: Antagonist activity at CCR2B (unknown origin) at 10 uM relative to control
[33] = test system: Rattus norvegicus; assay: Analgesic activity in rat spinal nerve ligation model of neuropathic pain assessed as recovery from cold allodynia at 100 mg/kg, po administered on day 14 post ligation surgery measured after 1 hr relative to control; format: functional
[34] = target: Metabotropic glutamate receptor 5 (Homo sapiens, UniProt P41594); assay: Antagonist activity at human mGluR5 expressed in human embryonic kidney cells assessed as inhibition of L-glutamate-induced calcium release at 10 uM by calcium-5 reagent-based fluorescence assay relative to control; format: functional, cell-based
Sequence of Metabotropic glutamate receptor 5 (P41594 21-1212 limits assumed): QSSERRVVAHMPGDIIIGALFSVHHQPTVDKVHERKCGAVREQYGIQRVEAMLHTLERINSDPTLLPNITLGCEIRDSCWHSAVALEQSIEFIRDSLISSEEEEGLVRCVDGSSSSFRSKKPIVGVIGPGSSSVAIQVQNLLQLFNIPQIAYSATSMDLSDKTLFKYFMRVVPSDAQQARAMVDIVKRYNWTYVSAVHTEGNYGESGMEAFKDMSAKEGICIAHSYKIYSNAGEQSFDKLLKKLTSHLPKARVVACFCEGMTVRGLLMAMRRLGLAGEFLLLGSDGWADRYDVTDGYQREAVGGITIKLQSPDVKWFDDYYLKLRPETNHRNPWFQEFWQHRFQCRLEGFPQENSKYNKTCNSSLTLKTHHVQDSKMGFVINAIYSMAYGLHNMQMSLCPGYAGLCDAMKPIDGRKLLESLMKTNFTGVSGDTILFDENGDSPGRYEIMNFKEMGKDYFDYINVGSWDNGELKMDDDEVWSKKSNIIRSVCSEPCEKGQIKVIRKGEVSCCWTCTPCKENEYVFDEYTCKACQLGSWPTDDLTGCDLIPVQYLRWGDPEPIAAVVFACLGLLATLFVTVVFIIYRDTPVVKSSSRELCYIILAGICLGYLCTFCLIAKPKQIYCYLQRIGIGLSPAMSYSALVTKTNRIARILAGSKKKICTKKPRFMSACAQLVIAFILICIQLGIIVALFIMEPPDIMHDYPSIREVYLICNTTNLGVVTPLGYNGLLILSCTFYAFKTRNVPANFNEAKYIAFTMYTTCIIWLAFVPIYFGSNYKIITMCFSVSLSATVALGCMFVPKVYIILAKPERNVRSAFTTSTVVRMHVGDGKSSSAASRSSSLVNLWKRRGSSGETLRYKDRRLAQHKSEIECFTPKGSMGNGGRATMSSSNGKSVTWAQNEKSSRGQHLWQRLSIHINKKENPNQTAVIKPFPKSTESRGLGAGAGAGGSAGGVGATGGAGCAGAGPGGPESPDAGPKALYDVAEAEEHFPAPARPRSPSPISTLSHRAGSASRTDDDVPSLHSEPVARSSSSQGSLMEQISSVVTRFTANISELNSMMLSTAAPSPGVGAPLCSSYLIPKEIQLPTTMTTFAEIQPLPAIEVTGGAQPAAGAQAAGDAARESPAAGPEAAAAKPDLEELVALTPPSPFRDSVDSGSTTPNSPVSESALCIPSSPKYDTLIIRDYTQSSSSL

[35] = target: C-X-C chemokine receptor type 5 (Homo sapiens) (UniProt P32302); assay: Antagonist activity at CXCR5 (unknown origin) at 10 uM relative to control
[36] = target: T1, Metabotropic glutamate receptor 1; assay: Antagonist activity at human mGluR1 expressed in human Chem-3 cells assessed as inhibition of L-glutamate-induced calcium release by calcium-5 reagent-based fluorescence assay; format: functional, cell-based
[37] = Drug excretion in Sprague-Dawley rat at 10 mg/kg, po by LC-MS/MS analysis; format: ADME, organism-based; set-up: dose 10 mg/kg, route oral; conditions: in vivo, read-out: Drug excretion
[38] = target: B2 bradykinin receptor (Homo sapiens) (UniProt P30411); assay: Antagonist activity at BDKR2 (unknown origin) at 10 uM relative to control
[39] = Terminal half life in Sprague-Dawley rat at 10 mg/kg, iv by LC-MS/MS analysis; format: ADME, organism-based; set-up: dose 10 mg/kg, route intravenous; conditions: in vivo, read-out: beta t1/2
[40] = target: Delta-type opioid receptor (Homo sapiens) (UniProt P41143); assay: Agonist activity at OPRD1 receptor (unknown origin) at 12.5 uM relative to control
[41] = Total clearance in Sprague-Dawley rat at 10 mg/kg, iv by LC-MS/MS analysis; format: ADME, organism-based; set-up: dose 10 mg/kg, route intravenous; conditions: in vivo
[42] = target: Metabotropic glutamate receptor 2 (Homo sapiens) (UniProt Q14416); assay: Antagonist activity at mGlu2 receptor (unknown origin) at 10 uM relative to control
[43] = target: CYP2D6 (Homo sapiens, UniProt P10635); assay: Inhibition of recombinant human CYP2D6 assessed as remaining activity at 10 uM preincubated for 5 mins followed by substrate and NADP addition measured after 20 mins by fluorescence assay relative to control; format: ADME; conditions: read-out: Activity

inhibition [1]: 104%
MRT [2]: 1.31 h
inhibition [3]: -0.6%
Activity [4]: -4%
activity at 20 min, 10 µM [5]: 20.5%
Activity [6]: -2.7%
inhibition [7]: 3.9%
inhibition [8]: 7.7%
AUC(0-t) [9]: 4090 ng·h/mL
concentration at 2 h [10]: 156 ng/mL
Activity [11]: 0.7%
remaining at 0.5 h, 1 µM [12]: 77.6%
concentration at 2 h [13]: 138 ng/mL
AUC(0-inf) [14]: 9270 ng·h/mL
inhibition [15]: 36.2%
Tmax [16]: 1.2 h
inhibition [17]: -9.4%
Activity [18]: 0.3%
Activity [19]: -0.5%
concentration at 8 h [20]: 70 ng/mL
Activity [21]: -1.4%
Vd [22]: 1.66 L/kg
concentration at 2 h [23]: 1190 ng/mL
Activity [24]: 0.8%
concentration at 8 h [25]: 80 ng/mL
bioavailability [26]: 45.8%
Kp at 2 h [27]: 0.13
dose excreted [28]: 0%
Activity [29]: -3.1%
AUC(0-t) [30]: 9060 ng·h/mL
inhibition [31]: -2.1%
inhibition [32]: -0.1%
inhibition [34]: 59.8%
inhibition [35]: 4.5%
IC50 [36]: 1420 nM
dose excreted [37]: 0%
inhibition [38]: 10.3%
half-life [39]: 1.83 h
Activity [40]: 1.5%
clearance [41]: 20.1 mL/min/kg
inhibition [42]: 5.8%
activity at 20 min, 10 µM [43]: 33.7%
SMILES: Cc1cc(C(=O)N2CCc3c(sc(NCc4ccccc4)c3C#N)C2)[nH]n1
Activity [33]: 90%
